Values quoted from earlier work in patent US7037523B2, “Controlled release compositions for macrolide antimicrobial agents” (Wockhardt Limited, priority 2001, dated 2006).

Key:
[1] = normal gastric pH of 1.0–2.0

CC[C@H]1OC(=O)[C@H](C)[C@@H](O[C@H]2C[C@@](C)(OC)[C@@H](O)[C@H](C)O2)[C@H](C)[C@@H](O[C@@H]2O[C@H](C)C[C@H](N(C)C)[C@H]2O)[C@](C)(OC)C[C@@H](C)C(=O)[C@H](C)[C@@H](O)[C@]1(C)O [Clarithromycin]
solubility in water: practically insoluble | degradation in acidic medium [1]: degrades rapidly
